Assay results: US20210299103A1, “COMPOSITION FOR PREVENTING OR TREATING CANCER, COMPRISING SULFONAMIDE DERIVATIVE AS ACTIVE INGREDIENT” (EXOSTEMTECH CO., LTD., priority 2018, published 2021)
Converted amounts (≈) assume the structure as drawn. “Also recorded” adds a separate entry of the source. Read-outs that look alike come from different tables or passages of the source.

Legend:
MDA-MB231 cells [1] = assay: Cancer cell migration assay, 8 μm insert, crystal violet staining; format: cell-based; conditions: 100, 200, 400 or 800 μM, 5 hours, FIG. 5
MDA-MB231 cells [2] = conditions: 100, 200, 400 or 800 μM, cultured 24 hours, FIG. 3
Protocol: After seeding MDA-MB231 cells into a 24-well plate with 1×10^4 cells/well, the cells were stabilized by culturing for 24 hours.
After the culturing, the cells were incubated for 4 hours with an MTT tetrazolium reagent. Then, cell proliferation was investigated by measuring the absorbance of reduced MTT formazan (3-(4,5-dimethylthiazol-2-yl)-2,5-diphenyl-tetrazolium bromide) at 595 nm. Docetaxel (10 μM), which is currently used as an anticancer agent, was used as a control group.

[3] = system: MDA-MB231 breast cancer cells; assay: Exosome secretion inhibition, exosomes counted with Nano-sight LM10; format: cell-based; conditions: 100 μM, serum-free medium, 24 hours, FIG. 4
Protocol: MDA-MB231 breast cancer cells were cultured on a 150-mm culture plate. 24 hours later, after removing the medium and washing with PBS, the cells were treated with each compound at 100 μM together with a serum-free medium and cultured for 24 hours. After discarding the medium and centrifuging at 300×g for 3 minutes, 2,500×g for 15 minutes […] 10,000×g for 30 minutes, the supernatant was transferred to a fresh tube.
After filtering through a 200-nm syringe filter, exosome pellets were obtained by centrifuging at 120,000×g for 90 minutes. After redispersing the exosome pellets using PBS, the number of exosomes secreted by the cells was counted using Nano-sight LM10 (Malvern).

[4] = system: Staphylococcus aureus (ATCC 29213); assay: Minimum inhibitory concentration (MIC) assay on Mueller-Hinton agar, CLSI guidelines; format: cell-based; conditions: for antibiotic susceptibility / antibiotic effect (in words): S. aureus; for MIC: S.aureus (ATCC 29213), Mueller-Hinton agar
Source text: (§1) Staphylococcus aureus (ATCC 29213) and Escherichia coli (ATCC 25922) were used.

[5] = system: Escherichia coli (ATCC 25922); assay: as above; format: cell-based; conditions: for antibiotic susceptibility / antibiotic effect (in words): E. coli; for MIC: E.coli (ATCC 25922), Mueller-Hinton agar
Source text: as §1

Compound	inhibition of migration of the cancer cells (MDA-MB231 cells [1])	cytotoxicity (MTT, absorbance at 595 nm) (MDA-MB231 cells [2])	inhibition of secretion of exosomes [3]	antibiotic susceptibility / antibiotic effect (in words) [4]	MIC [4]	antibiotic susceptibility / antibiotic effect (in words) [5]	MIC [5]	MIC ([4]; Staphylococcus aureus, ATCC29213, read-out: MIC)	MIC ([5]; Escherichia coli, ATCC25922, read-out: MIC)
CC(=O)Nc1ccc(S(=O)(=O)N(C(C)=O)c2onc(C)c2C)cc1 [SFX-DAS, sulfisoxazole-N^1&N^4-dual acetyl]	inhibited in a concentration-dependent manner	exhibit cytotoxicity at 100 μM or higher	strongly inhibit the secretion of exosomes	no antibiotic susceptibility at all; also recorded: completely disappeared	>512 µg/mL	no antibiotic susceptibility at all; also recorded: completely disappeared	>512 µg/mL		
CC(=O)N(c1onc(C)c1C)S(=O)(=O)c1ccc(N)cc1 [SFX-N1AS, sulfisoxazole-N^1-acetyl]	inhibited in a concentration-dependent manner		strongly inhibit the secretion of exosomes	decreased antibiotic susceptibility; also recorded: reduced significantly	512 µg/mL (≈ 1660 µM)	decreased antibiotic susceptibility; also recorded: reduced significantly	128 µg/mL (≈ 414 µM)		
CC(=O)Nc1ccc(S(=O)(=O)Nc2onc(C)c2C)cc1 [SFX-N4AS, sulfisoxazole-N^4-acetyl]	inhibited in a concentration-dependent manner		strongly inhibit the secretion of exosomes	no antibiotic susceptibility at all; also recorded: completely disappeared	>512 µg/mL	no antibiotic susceptibility at all; also recorded: completely disappeared	>512 µg/mL		
Cc1noc(NS(=O)(=O)c2ccc(N)cc2)c1C [SFX-WT, sulfisoxazole, reference compound]	inhibited in a concentration-dependent manner			strong antibiotic susceptibility		strong antibiotic susceptibility		32 µg/mL (≈ 120 µM)	16 µg/mL (≈ 59.9 µM)
